Where “and” joins values, the source holds several entries; their conditions need not be identical. Equal entries are not always repeated. Where two headings read alike, the source gives them in different places.
Columns and labels:
[1] = system: ascites Ehrlich carcinoma cells; assay: Apoptosis in ascites Ehrlich carcinoma cells of treated mice (cytofluorimetric analysis); assay type: in vivo
[2] = Acute toxicity in rats after a single intramuscular injection; assay type: in vivo, Wistar rats
[3] = rat, in vivo
[4] = rat, in vivo; remark: listed apart in the source
[5] = rat, in vivo; remark: listed apart in the source
[6] = system: A/Aichi/2/69 (H3N2) influenza virus; assay: Induced influenza pneumonia in mice; details: for Average lifetime (days) / Death rate (%) / Percent death protection (%) / Survival (survivors/total): observation day 16
solid Ehrlich carcinoma = assay: Solid Ehrlich carcinoma in white mice, tumor size dynamics
[7] = system: Ehrlich ascites carcinoma; assay: Ehrlich ascites carcinoma in white mice, body weight dynamics
[8] = Chronic toxicity in rats, intramuscular 30 days: clinical observation and body weight; details: 3, 9, or 20 mg/kg intramuscularly daily for a month
[9] = ascites cells having large sizes and granularity (tumor cells)
[10] = ascites cells of moderate size and granularity
[11] = intraperitoneally 100 mg/kg/day

## N-fullerene tris(δ-aminocaproic acid) hydrate [Agent 1]
[1]; [9]
  AnV^+ 7AAD^+ (late apoptosis): 69.5 ± 5.8%
  AnV^+ 7AAD^− (early apoptosis): 0.1 ± 0.1%
  AnV^−7AAD^− (living cells): 0.3 ± 0.1%
[1]; ascites cells having large sizes and granularity (tumor cells), hydrate
  AnV^−7AAD^+ (necrosis): 30.2% and 30.2 ± 5.9%
[1]; [10]
  Percent amount of cells with the phenotype AnV^+ 7AAD^+ (late apoptosis): 4.2 ± 2.4%
  Percent amount of cells with the phenotype AnV^+ 7AAD^− early apoptosis: 31.1 ± 10.4%
  Percent amount of cells with the phenotype AnV^−7AAD^+ (necrosis): 0.4 ± 0.4%
  Percent amount of cells with the phenotype AnV^−7AAD^− (living cells): 6.1 ± 6.2%
[2]; 5, 50 and 500 mg/kg single i.m.
  death during the 14-day observation period: No death occurred
[2]; females, 5 mg/kg single intramuscular, day 0
  Animal body weight (M ± SD): 163 ± 15.5 g
[2]; females, 50 mg/kg single intramuscular, day 0
  Animal body weight (M ± SD): 165 ± 17.5 g
[2]; females, 500 mg/kg single intramuscular, day 0
  Animal body weight (M ± SD): 160 ± 8.1 g
[2]; females, 500 mg/kg single intramuscular, day 7
  Animal body weight (M ± SD): 169 ± 8.0 g
[2]; males, 5 mg/kg single intramuscular, day 7
  Animal body weight (M ± SD): 228 ± 18.1 g
[2]; males, 5 mg/kg single intramuscular, day 14
  Animal body weight (M ± SD): 276 ± 17.8 g
[2]; males, 50 mg/kg single intramuscular, day 7
  Animal body weight (M ± SD): 228 ± 17.0 g
[2]; males, 50 mg/kg single intramuscular, day 14
  Animal body weight (M ± SD): 279 ± 18.3 g
[2]; males, 500 mg/kg single intramuscular, day 14
  Animal body weight (M ± SD): 258 ± 24.1 g
[2]; single intramuscular administration, exceeds the maximal tested dose
  LD50: > 500 mg/kg
[3]; 3 mg/kg
  Alkali hosphatase, Units/L: 143 ± 47 Units/L
  Cholesterol: 4.17 ± 0.68 mmol/L
  Glucose: 7.64 ± 1.56 mmol/L
  Total proten: 71.12 ± 6.66 g/L
[3]; 9 mg/kg
  Alkali hosphatase, Units/L: 159 ± 28 Units/L
  Glucose: 7.18 ± 0.80 mmol/L
  Total protein: 68.94 ± 2.97 g/L
  Total proten: 78.48 ± 8.94 g/L
[3]; 20 mg/kg
  Alkali hosphatase, Units/L: 248 ± 107 Units/L
  Total proten: 72.76 ± 8.11 g/L
  Urea: 9.22 ± 1.56 mmol/L
[4]; 3 mg/kg
  Basophils, %: 0%
  Erythrocytes, Mln/mm: 6.5 ± 1.2 Mln/mm
  Young, %: 0%
[4]; 9 mg/kg
  Basophils, %: 0%
  Erythrocytes, Mln/mm: 6.4 ± 0.5 Mln/mm
  Young, %: 0%
[4]; 20 mg/kg
  Avg. erythr. volume., mcm: 50.4 ± 1.5 mcm
  Basophils, %: 0%
  Erythrocytes, Mln/mm: 6.3 ± 0.8 Mln/mm
  Hematocrit, %: 31.2 ± 3.5%
  Young, %: 0%
[5]; 3 mg/kg
  Glucose: number of animals with values going beyond the limits: 0
  Leukocytes: number of animals with values going beyond the limits: 3
[5]; 9 mg/kg
  Protein: number of animals with values going beyond the limits: 3
[5]; 20 mg/kg
  Bilirubin: number of animals with values going beyond the limits: 0
  Erythrocytes: number of animals with values going beyond the limits: 5
  Glucose: number of animals with values going beyond the limits: 0
  Nitrites: number of animals with values going beyond the limits: 1
[6]; intramuscularly 50 mg/kg/day, day 1 post infection
  Percent body weight change: +9%
[6]; intramuscularly 50 mg/kg/day, day 2 post infection
  Percent body weight change: +14%
[6]; intramuscularly 50 mg/kg/day, day 3 post infection
  Percent body weight change: +21%
[6]; intramuscularly 50 mg/kg/day, day 4 post infection
  Percent body weight change: +26%
[6]; intramuscularly 50 mg/kg/day, day 5 post infection
  Percent body weight change: +30%
[6]; intramuscularly 50 mg/kg/day, day 7 post infection
  Percent body weight change: +27%
[6]; intramuscularly 50 mg/kg/day, day 9 post infection
  Percent body weight change: +38%
[6]; intramuscularly 50 mg/kg/day, day 11 post infection
  Percent body weight change: +64%
[6]; intramuscularly 50 mg/kg/day, day 13 post infection
  Percent body weight change: +74%
[6]; intramuscularly 50 mg/kg/day
  Average lifetime (days): 12.4 (1-7 d., 1-9 d., 2-11 d) days
  Death rate (%): 40%
  Percent death protection (%): 50%
  Survival (survivors/total): 6/10
[6]; intramuscularly 100 mg/kg/day, day 1 post infection
  Percent body weight change: +13%
[6]; intramuscularly 100 mg/kg/day, day 2 post infection
  Percent body weight change: +17%
[6]; intramuscularly 100 mg/kg/day, day 3 post infection
  Percent body weight change: +23%
[6]; intramuscularly 100 mg/kg/day, day 4 post infection
  Percent body weight change: +28%
[6]; intramuscularly 100 mg/kg/day, day 5 post infection
  Percent body weight change: +31%
[6]; intramuscularly 100 mg/kg/day, day 7 post infection
  Percent body weight change: +39%
[6]; intramuscularly 100 mg/kg/day, day 9 post infection
  Percent body weight change: +65%
[6]; intramuscularly 100 mg/kg/day, day 11 post infection
  Percent body weight change: +7%
[6]; intramuscularly 100 mg/kg/day, day 13 post infection
  Percent body weight change: +82%
[6]; intramuscularly 100 mg/kg/day
  Average lifetime (days): 13.5 (1-8 d, 1-9 d) days
  Death rate (%): 20%
  Percent death protection (%): 70%
  Survival (survivors/total): 8/10
[6]; intramuscularly 200 mg/kg/day, day 1 post infection
  Percent body weight change: +11%
[6]; intramuscularly 200 mg/kg/day, day 2 post infection
  Percent body weight change: +20%
[6]; intramuscularly 200 mg/kg/day, day 3 post infection
  Percent body weight change: +26%
[6]; intramuscularly 200 mg/kg/day, day 4 post infection
  Percent body weight change: +35%
[6]; intramuscularly 200 mg/kg/day, day 5 post infection
  Percent body weight change: +39%
[6]; intramuscularly 200 mg/kg/day, day 7 post infection
  Percent body weight change: +43%
[6]; intramuscularly 200 mg/kg/day, day 9 post infection
  Percent body weight change: +51%
[6]; intramuscularly 200 mg/kg/day, day 11 post infection
  Percent body weight change: +62%
[6]; intramuscularly 200 mg/kg/day, day 13 post infection
  Percent body weight change: +70%
[6]; intramuscularly 200 mg/kg/day
  Average lifetime (days): 14.4 (1-10 d) days
  Death rate (%): 10%
  Percent death protection (%): 80%
  Survival (survivors/total): 9/10
[6]; intraperitoneal, 200 mg/kg/day
  tolerability in infected mice: toxic
[6]; intraperitoneally 50 mg/kg/day, day 1 post infection
  Percent body weight change: +11%
[6]; intraperitoneally 50 mg/kg/day, day 2 post infection
  Percent body weight change: +17%
[6]; intraperitoneally 50 mg/kg/day, day 3 post infection
  Percent body weight change: +22%
[6]; intraperitoneally 50 mg/kg/day, day 4 post infection
  Percent body weight change: +25%
[6]; intraperitoneally 50 mg/kg/day, day 5 post infection
  Percent body weight change: +28%
[6]; intraperitoneally 50 mg/kg/day, day 7 post infection
  Percent body weight change: +35%
[6]; intraperitoneally 50 mg/kg/day, day 9 post infection
  Percent body weight change: +41%
[6]; intraperitoneally 50 mg/kg/day, day 11 post infection
  Percent body weight change: +67%
[6]; intraperitoneally 50 mg/kg/day, day 13 post infection
  Percent body weight change: +77%
[6]; intraperitoneally 50 mg/kg/day
  Average lifetime (days): 11.5 (1-5 d., 1-7 d., 3-11 d.) days
  Death rate (%): 50%
  Percent death protection (%): 40%
  Survival (survivors/total): 5/10
[6]; intraperitoneally 100 mg/kg/day, day 1 post infection
  Percent body weight change: +9%
[6]; intraperitoneally 100 mg/kg/day, day 2 post infection
  Percent body weight change: +15%
[6]; intraperitoneally 100 mg/kg/day, day 3 post infection
  Percent body weight change: +19%
[6]; intraperitoneally 100 mg/kg/day, day 4 post infection
  Percent body weight change: +21%
[6]; intraperitoneally 100 mg/kg/day, day 5 post infection
  Percent body weight change: +21%
[6]; intraperitoneally 100 mg/kg/day, day 7 post infection
  Percent body weight change: +27%
[6]; intraperitoneally 100 mg/kg/day, day 9 post infection
  Percent body weight change: +37%
[6]; intraperitoneally 100 mg/kg/day, day 11 post infection
  Percent body weight change: +50%
[6]; intraperitoneally 100 mg/kg/day, day 13 post infection
  Percent body weight change: +82%
[6]; [11]
  Average lifetime (days): 11.0 (3-7 d., 1-8 d., 1-11 d) days
  Death rate (%): 50%
  Percent death protection (%): 40%
  Survival (survivors/total): 5/10
[6]; orally 100 mg/kg/day, day 1 post infection
  Percent body weight change: +12%
[6]; orally 100 mg/kg/day, day 2 post infection
  Percent body weight change: +17%
[6]; orally 100 mg/kg/day, day 3 post infection
  Percent body weight change: +23%
[6]; orally 100 mg/kg/day, day 4 post infection
  Percent body weight change: +25%
[6]; orally 100 mg/kg/day, day 5 post infection
  Percent body weight change: +24%
[6]; orally 100 mg/kg/day, day 7 post infection
  Percent body weight change: +21%
[6]; orally 100 mg/kg/day, day 9 post infection
  Percent body weight change: +23%
[6]; orally 100 mg/kg/day, day 11 post infection
  Percent body weight change: +34%
[6]; orally 100 mg/kg/day, day 13 post infection
  Percent body weight change: +44%
[6]; orally 100 mg/kg/day
  Average lifetime (days): 10.4 (2-7 d., 1-9 d., 1-10 d) days
  Death rate (%): 50%
  Percent death protection (%): 40%
  Survival (survivors/total): 5/10
[6]; orally 200 mg/kg/day, day 1 post infection
  Percent body weight change: +15%
[6]; orally 200 mg/kg/day, day 2 post infection
  Percent body weight change: +20%
[6]; orally 200 mg/kg/day, day 3 post infection
  Percent body weight change: +23%
[6]; orally 200 mg/kg/day, day 4 post infection
  Percent body weight change: +25%
[6]; orally 200 mg/kg/day, day 5 post infection
  Percent body weight change: +24%
[6]; orally 200 mg/kg/day, day 7 post infection
  Percent body weight change: +22%
[6]; orally 200 mg/kg/day, day 9 post infection
  Percent body weight change: +25%
[6]; orally 200 mg/kg/day, day 11 post infection
  Percent body weight change: +45%
[6]; orally 200 mg/kg/day, day 13 post infection
  Percent body weight change: +57%
[6]; orally 200 mg/kg/day
  Average lifetime (days): 13.0 (1-7 d., 1-10 d., 1-11 d) days
  Death rate (%): 30%
  Percent death protection (%): 60%
  Survival (survivors/total): 7/10
Solid Ehrlich carcinoma; 100 mg/kg, day 8 post transplantation
  Tumor size (mm^3): 72.5 mm^3
Solid Ehrlich carcinoma; 100 mg/kg, day 13 post transplantation
  Tumor size (mm^3): 544.3 mm^3
Solid Ehrlich carcinoma; 100 mg/kg, day 17 post transplantation
  Tumor size (mm^3): 693.6 mm^3
Solid Ehrlich carcinoma; 100 mg/kg, day 21 post transplantation
  Tumor size (mm^3): 1250.8 mm^3
Solid Ehrlich carcinoma; 100 mg/kg, day 24 post transplantation
  Tumor size (mm^3): 1654.3 mm^3
Solid Ehrlich carcinoma; 100 mg/kg, day 28 post transplantation
  Tumor size (mm^3): 2239.8 mm^3
Solid Ehrlich carcinoma; 300 mg/kg, day 8 post transplantation
  Tumor size (mm^3): 72.7 mm^3
Solid Ehrlich carcinoma; 300 mg/kg, day 13 post transplantation
  Tumor size (mm^3): 416.3 mm^3
Solid Ehrlich carcinoma; 300 mg/kg, day 17 post transplantation
  Tumor size (mm^3): 1224.6 mm^3
Solid Ehrlich carcinoma; 300 mg/kg, day 21 post transplantation
  Tumor size (mm^3): 1703.4 mm^3
Solid Ehrlich carcinoma; 300 mg/kg, day 24 post transplantation
  Tumor size (mm^3): 2048.5 mm^3
Solid Ehrlich carcinoma; 300 mg/kg, day 28 post transplantation
  Tumor size (mm^3): 2525.7 mm^3
[7]; day 1 post tumor transplantation
  Animal body weight: 18.6 ± 2.3 g
[7]; day 3 post tumor transplantation
  Animal body weight: 18.8 ± 2.2 g
[7]; day 5 post tumor transplantation
  Animal body weight: 18.8 ± 1.9 g
[7]; day 8 post tumor transplantation
  Animal body weight: 19.4 ± 1.7 g
[7]; day 10 post tumor transplantation
  Animal body weight: 19.9 ± 1.7 g
[7]; day 13 post tumor transplantation
  Animal body weight: 20.4 ± 1.5 g
[7]; day 15 post tumor transplantation
  Animal body weight: 20.4 ± 1.4 g
[8]
  clinical signs of poisoning: no clinical signs of poisoning were observed

Source: patent US9096492B2, “Hydrated N-fullerene amino acids, method for producing the latter, and pharmaceutical compositions on the basis thereof” (priority 2011, dated 2015)
